We go through 2 compounds from patent publication US20220110985A1, “NUTRITIONAL COMPOSITION COMPRISING 2'FUCOSYLLACTOSE AND 3'GALACTOSYLLACTOSE” (N.V. Nutricia, priority 2019, published 2022).

Assay [1] relates to human peripheral blood mononuclear cells (PBMCs). As to the kind of experiment: PBMC cell activity (WST-1). As to conditions: after 24 h; non-stimulated and CD3/CD28 stimulated conditions. It counts as cell-based. The procedure: (§1) Isolation of PBMC from healthy donors: Human peripheral blood mononuclear cells (PBMC) from healthy donors were isolated from buffy coats (Sanquin, Amsterdam, the Netherlands). PBMC were obtained by centrifugation using Leucosep tubes (Greiner Bio-One). PBMC were collected and washed in PBS (Gibco, Thermo Fisher Technologies)+2% heat-inactivated FCS (Invitrogen), followed by hypotonic lysis of erythrocytes with sterile lysis buffer (0.15 M NH4Cl, 0.01 M KHCO3 and 0.1 mM EDTA, pH of 7.4 at 4° C., all from Merck, Darmstadt, Germany). After lysis, the PBMC were resuspended in freezing medium (70% RPMI 1640 medium (Gibco, Thermo Fisher Technologies) supplemented with 10% heat-inactivated FCS and 100 U/ml penicillin-streptomycin, 20% heat-inactivated FCS and 10% DMSO (Sigma)) and cryopreserved.
(§2) PBMC activation model: PBMC (0.2·10^6 cell/well) were cultured in 96-well flat bottom plates (Corning). For 24 hours the cells were pre-incubated with 2′-FL (Jennewein), 3′-GL (0-0.3% w/v; Carbosynth) or sodium butyrate (0.2 mM; Sigma Aldrich) and combinations thereof. Subsequently, the cells were CD3/CD28-activated (Pelicluster CD3 and Pelicluster CD28, Sanquin) for an additional 24 hours. After incubation, IFNγ was measured by ELISA in the supernatants (see below). To determine cell activity after stimulation, PBMC were incubated with cell proliferation reagent WST-1 (10 μl; Roche) and/or 10% Triton (5 μl; negative control). After 3 hours, absorbance was measured at OD450 nm and OD650 nm and cell activity was calculated according to manufacturer's instructions.
Background: Tetrazolium dyes change colour on reduction, which living cells bring about.

In assay [2] the test system is Bifidobacteria. As to the kind of experiment: Fecal slurry fermentation: total Bifidobacteria. The assay is classed as cell-based. The procedure:
(§3) Anaerobic fermentation of fecal slurry samples was tested in a BioLector Pro microfluidics mini multifermentor. Faecal slurry samples were collected from breast fed infants and from formula fed infants. These faecal slurry samples were processed by adding 0.6 grams feces in 40 ml Baby Reichardt V.6 medium+mucus+Ammonium sulfate+lactate and acetate. The resulting solutions were inserted to the BioLector Pro microfluidics mini multifermentor. The test legs were supplemented with 3-GL, 2′-FL, 3′-GL+2′-FL, and GOS/FOS. The control leg was supplemented with sterile water.
A 32 well plate that can handle low pH was used. The wells of this plate were filled with fecal solution. 2.5% (w/v) of the different sterile carbohydrate solutions (3′-GL, 2′-FL, 2′-FL/3′-GL (2.0+0.5%). and Glucose were added to the fecal slurry according to a template.
The experiment was started, and pH setpoint was either 5.5 (facial inoculum from infant 1, vaginally born, breast fed) or pH 6.0 (Inoculum from infant 2, vaginally born, breast fed) with continuous pH regulation, and temperature 37° C., humidity 85%, OD control. At 4, 8 and 24 hours a sample is taken for CFU determination on TOS-propionate MUP agar (total Bifidobacteria), XLD agar for Salmonella enteriditis S29, and Simons citrate inositol agar for Klebsiella pneumonia K2 and for SCFA, D- and L Lactate and ammonia analysis. Fecal pellet was used for 16s DNA sequencing.

Assay [3] has as its system human PBMC, CD3/CD28 stimulated. Briefly: Cytokine production of CD3/CD28 stimulated PBMC. The assay is classed as cell-based. To be noted: for CCL17 levels, in words / levels of IL-4 and IL-13 as compared to control, in words: CD3/CD28 stimulated PBMC, pre-incubation; for Relative level of CCL17, Mean (s.e.) / Relative level of IL-4, Mean (s.e.) / Relative level of IL-13, Mean (s.e.): CD3/CD28 stimulated, 24 h pre-incubation, 0.2 wt % 2′-FL, 0.1 wt % 3′-GL, blanc = 1, observed. The procedure: as §1, §2
Cytokine production of PBMC: PBMC were incubated with indicated reagents. After incubation, the supernatants were collected and IL2, IL6, IL10, IL13, IL21, TNFα, IFNγ, MIF, CCL1, CCL13, CCL17, CCL20, CCL22 and CXCL8-11 levels were measured by conducting a validated multiplex immunoassay based on Luminex technology (xMAP, Luminex Austin Tex. USA). Acquisition was conducted with the Biorad FlexMAP3D (Biorad laboratories, Hercules USA) in combination with xPONENT software version 4.2 (Luminex). Data was analyzed by 5-parametric curve fitting using Bio-Plex Manager software, version 6.1.1 (Biorad).
After PBMC stimulation, cell culture supernatants were collected, after which cytokine responses were measured in order to test immune responsiveness of the cells. The levels of cytokines measured in stimulated conditions were corrected for the (low) levels of the cytokines measured in non-stimulated conditions. In addition, since each donor is reacting in its own efficiency onto the T cell stimulus, we calculated the individual index of cytokine response by dividing the intervention induced response by the basal stimulated response.
Subsequently, in order to test the direct effect of specific compounds on PBMC activity, the cells were activated with CD3/CD28 for 24 hours after a pre-incubated for 24 h with either 2′-FL, 3′-GL and combinations thereof. In addition, since each donor is reacting in its own efficiency onto the T cell stimulus, the individual index of cytokine response was calculated by dividing the intervention induced response by the basal stimulated response (the blanc is set at 1). In this way the intervention within 10 different donors has been studied.

Assay [4] relates to fecal slurry microbiota. Briefly: Anaerobic fermentation of fecal slurry (BioLector Pro): acidification, microbiota composition. The assay is classed as cell-based, human infant. To be noted: no pathogen spiking. The procedure: as §3
In addition the test legs were supplemented with Clostridium difficile C153 (difficile agar), Salmonella enteriditis S29 (XLD agar), Cronobacter sakasakii E71 (chromogenic agar) or Klebsiella pneumonia K2 (Simons citrate inositol agar). For every NDO and for the control also a pathogen free culture was prepared.
After fermentation the fermented solutions were tested for SCFA content (in particular acetic acid, propionic acid, butyric acid and isobutyric acid), ammonia content, lactate content and pathogen concentration. Also DNA-isolation+identification and 16s sequencing was performed to determine the composition of the microbiota.
A 32 well plate that can handle low pH was used. The wells of this plate were filled with fecal solution. […]

Take `C[C@@H]1O[C@@H](O[C@H]2[C@H](O[C@H]3[C@H](O)[C@@H](O)C(O)O[C@@H]3CO)O[C@H](CO)[C@H](O)[C@@H]2O)[C@@H](O)[C@H](O)[C@@H]1O` (stereo partly drawn) [2′-FL, α-L-Fuc-(1→2)-β-D-Gal-(1→4)-D-Glc]: the “Immune cell activity as measured by WST, in words” value in assay [1] is listed as “significantly increased”. For the same compound, the Growth of bifidobacteria result in assay [2] was “Growth of bifidobacteria was observed”. In assay [3], the “CCL17 levels, in words” value is “no significant effect”; the “levels of IL-4 and IL-13 as compared to control, in words” value is recorded as “had no effect”; the “Relative level of CCL17, Mean (s.e.)” value is given as 1.061 (0.117); the “Relative level of IL-4, Mean (s.e.)” value is listed as 0.9887 (0.0517). Moreover, the “Relative level of IL-13, Mean (s.e.)” value in assay [3] is 1.039 (0.080). Further, the “extent of fermentation as measured by NaOH consumption, i.e. acid production” value in assay [4] (both inocula) is “slower and lower acidification”.

Regarding “Gal (beta 1-3)-Gal (beta 1-4)-Glc [3′-GL]”, the “Immune cell activity as measured by WST, in words” value in assay [1] is listed as “decrease in activation”. In addition, in assay [2], the Growth of bifidobacteria result is reported as “Growth of bifidobacteria was observed”. Also, in assay [2] (inoculum of baby 2), the effect on bifidobacteria result is on record as “highest”. For the same compound, in assay [3], the “CCL17 levels, in words” value was “no significant effect”; the “levels of IL-4 and IL-13 as compared to control, in words” value was “a decrease was detected”; the “Relative level of CCL17, Mean (s.e.)” value was 0.6212 (0.0531); the “Relative level of IL-4, Mean (s.e.)” value was 0.5825 (0.0413). Moreover, the “Relative level of IL-13, Mean (s.e.)” value in assay [3] is recorded as 0.5472 (0.0723). For the same compound, the “rate of initial acidification” value in assay [4] is on record as “high”.
